The source of these data is ChEMBL document CHEMBL1122462, “Potential antiatherosclerotic agents. 4. [(Functionalized-alkyl)amino]benzoic acid analogues of cetaben” (1983).

For test [1], the system named is Rattus norvegicus. The test can be described thus: In vivo Triglyceride lowering activity at dose as 0.03 % of the diet. The test is classed as functional.
Test [2] has as its system Rattus norvegicus. The test can be described thus: In vivo Sterol lowering activity at dose as 0.10 % of the diet. The test is classed as functional.
Test [3] relates to Rattus norvegicus. As to the kind of experiment: In vivo Triglyceride lowering activity at dose as 0.01 % of the diet. The test is classed as functional.
The subject of test [4] is Rattus norvegicus. The test can be described thus: In vivo Triglyceride lowering activity at dose as 0.10 % of the diet. The class given is functional.
Test [5] relates to Rattus norvegicus. As to the kind of experiment: In vivo Sterol lowering activity at dose as 0.03 % of the diet. The class given is functional.
Test [6] has as its system Rattus norvegicus. The test can be described thus: In vivo Sterol lowering activity at dose as 0.01 % of the diet. The test is classed as functional.
The target of test [7] is T1, Sterol O-acyltransferase 1 (Rattus norvegicus) (UniProt O70536).
T1 sequence (whole entry): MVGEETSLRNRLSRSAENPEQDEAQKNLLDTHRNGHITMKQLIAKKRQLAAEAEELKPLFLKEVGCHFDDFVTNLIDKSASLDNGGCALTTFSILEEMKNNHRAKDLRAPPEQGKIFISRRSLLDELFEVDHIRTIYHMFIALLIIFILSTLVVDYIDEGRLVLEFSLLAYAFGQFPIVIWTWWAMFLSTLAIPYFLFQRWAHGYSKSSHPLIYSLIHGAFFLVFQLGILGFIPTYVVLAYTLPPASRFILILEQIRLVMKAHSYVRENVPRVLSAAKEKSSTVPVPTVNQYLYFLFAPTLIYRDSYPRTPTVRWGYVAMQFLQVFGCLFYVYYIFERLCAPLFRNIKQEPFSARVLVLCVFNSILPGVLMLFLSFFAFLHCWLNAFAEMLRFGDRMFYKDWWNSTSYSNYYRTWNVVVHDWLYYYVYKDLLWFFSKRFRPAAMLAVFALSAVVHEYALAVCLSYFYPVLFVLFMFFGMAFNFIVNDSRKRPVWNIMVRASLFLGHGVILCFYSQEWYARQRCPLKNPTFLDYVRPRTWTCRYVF
The test can be described thus: In vitro inhibitory activity against acyl coenzyme A:cholesterol acyltransferase. Also noted: concentration or dose not given beside the values. Particulars: concentration not given here.

In test [8] the test system is Rattus norvegicus. The test can be described thus: In vivo Triglyceride lowering activity at dose as 0.01 % of the diet. The test is classed as functional.
The subject of test [9] is Rattus norvegicus. The test can be described thus: In vivo Triglyceride lowering activity at dose as 0.03 % of the diet. The test is classed as functional.
The subject of test [10] is Rattus norvegicus. As to the kind of experiment: In vivo sterol lowering activity, dosed as 0.03 % of the diet. The test is classed as functional.
For test [11], the system named is Rattus norvegicus. The test can be described thus: In vivo Triglyceride lowering activity at a dose of 0.10 % of the diet. The class given is functional.
Test [12] relates to Rattus norvegicus. The test can be described thus: In vivo sterol lowering activity at dose of 0.10 % of the diet. The class given is functional.

Where “and” joins values, the source holds several entries; their conditions need not be identical. Identical values can stand only once.

What is called inhibition is the percentage by which the read-out fell short of the control. Consider `O=C(O)CN(CC(=O)O)c1ccc(C(=O)O)cc1`, for which the Diet amounted to 84% with Rattus norvegicus [1]; 91% in the test on Rattus norvegicus [2]; 92% with Rattus norvegicus [3]; 100% in the test on Rattus norvegicus [4]; 89% in the test on Rattus norvegicus [5]; 95% in the test with Rattus norvegicus [6]. In [7], this molecule registered an inhibition of 14%.
For the molecule `O=C(O)c1ccc(NCC2CCCCC2)cc1`, the “serum triglyceride level (% of control)” value in the test with Rattus norvegicus [8] was found to be 73%; in the test on Rattus norvegicus [11], 62%. The triglyceride lowering activity with Rattus norvegicus [9] was 71%. Further, the “serum sterol level, percent of control” value in the test on Rattus norvegicus [10] amounted to 84%. The Diet in the test on Rattus norvegicus [6] was 95%. Moreover, the “serum sterol level, % of control” value in the test with Rattus norvegicus [12] is recorded as 83%. In test [7], this molecule registered an inhibition of 1%.
On to `NC(=O)CNc1ccc(C(=O)O)cc1`, for which the results for the Diet in the test with Rattus norvegicus [2] and in the test with Rattus norvegicus [4] were 100% and 102%, respectively. In test [7], this molecule registered an inhibition of 17%.
In the case of `CCOC(=O)c1ccc(NC(C)C(=O)OCC)cc1` (stereo unspecified), the Diet with Rattus norvegicus [1] is listed as 110%; in the test on Rattus norvegicus [2], 107%; with Rattus norvegicus [3] it was 123%; in the test on Rattus norvegicus [4], 82%; with Rattus norvegicus [5] it was 93%; in the test on Rattus norvegicus [6] it was 107%. In [7], the inhibition came out at 23%.
Turning to `CCOC(=O)CCNc1ccc(C(=O)OCC)cc1`, the Diet with Rattus norvegicus [1] came out at 98%; in the test with Rattus norvegicus [2], 94%; with Rattus norvegicus [3] it was 109%; with Rattus norvegicus [4] it was 103%; in the test with Rattus norvegicus [5], 100%; in the test on Rattus norvegicus [6] it was 97%. In addition, the inhibition in test [7] was found to be 28%.
With `O=C(O)CCNc1ccc(C(=O)O)cc1`, the Diet in the test on Rattus norvegicus [1] worked out at 108%; with Rattus norvegicus [2], 100%; in the test with Rattus norvegicus [3] it was 97%; in the test with Rattus norvegicus [5], 118%; with Rattus norvegicus [6], 101%. The “serum triglyceride level (% of control)” value in the test with Rattus norvegicus [11] came out at 72%. Also, the inhibition in test [7] was 6% and 0%.
Consider `CCOC(=O)CCCCCNc1ccc(C(=O)OCC)cc1`, for which the Diet is 72% in the test with Rattus norvegicus [1]; 84% with Rattus norvegicus [2]; 68% with Rattus norvegicus [3]; 71% in the test on Rattus norvegicus [4]; 92% with Rattus norvegicus [5]; 96% in the test on Rattus norvegicus [6]. In [7], this molecule displayed an inhibition of 18%.
For `O=C(O)CNc1ccc(C(=O)O)cc1`, the Diet in the test on Rattus norvegicus [1] is 93%; in the test on Rattus norvegicus [2] it was 98%; in the test on Rattus norvegicus [3], 90%; in the test on Rattus norvegicus [4], 106%; with Rattus norvegicus [5], 87%; in the test on Rattus norvegicus [6], 89%. This molecule also showed an inhibition in test [7] of 18%.
`CCOC(=O)CCCNc1ccc(C(=O)OCC)cc1`: the Diet in the test with Rattus norvegicus [2] came to 93%; in the test on Rattus norvegicus [4] it was 103%. This molecule registered an inhibition in test [7] of 11%.
Consider `CCOC(=O)CNc1ccc(C(=O)OCC)cc1`, for which the Diet in the test on Rattus norvegicus [1] stood at 114%; in the test on Rattus norvegicus [2] it was 100%; with Rattus norvegicus [3] it was 109%; with Rattus norvegicus [4], 121%; in the test on Rattus norvegicus [5] it was 100%; in the test with Rattus norvegicus [6], 90%. In [7], this molecule showed an inhibition of 24%.
Turning to `CCOC(=O)c1ccc(NCCCC#N)cc1`, the Diet with Rattus norvegicus [1] is listed as 113%; with Rattus norvegicus [2], 109%; with Rattus norvegicus [3], 131%; in the test on Rattus norvegicus [4], 97%; with Rattus norvegicus [5] it was 118%; with Rattus norvegicus [6], 116%. The same molecule came in with an inhibition in [7] of 26%.
For the molecule `O=C(O)CCCCCNc1ccc(C(=O)O)cc1`, the Diet with Rattus norvegicus [1] stood at 91%; in the test on Rattus norvegicus [2], 105%; with Rattus norvegicus [3] it was 85%; in the test with Rattus norvegicus [4] it was 102%; in the test on Rattus norvegicus [5], 100%; in the test with Rattus norvegicus [6], 92%. The inhibition in test [7] came out at 4%.
In the case of `CCOC(=O)c1ccc(NC(=O)CCC(=O)OC)cc1`, the Diet in the test with Rattus norvegicus [1] amounted to 92%; with Rattus norvegicus [2], 97%; in the test on Rattus norvegicus [3], 99%; in the test with Rattus norvegicus [4], 114%; in the test on Rattus norvegicus [5] it was 99%; in the test on Rattus norvegicus [6], 86%. For the same molecule, in test [7], the inhibition was determined as 2%.
As to `O=C(O)CCCNc1ccc(C(=O)O)cc1`, the Diet with Rattus norvegicus [2] was found to be 99%; in the test on Rattus norvegicus [4] it was 86%. The same molecule returned an inhibition in test [7] of 0%.
As to `CCOC(=O)CN(CC(=O)OCC)c1ccc(C(=O)OCC)cc1`, the Diet in the test on Rattus norvegicus [1] turned out to be 120%; in the test on Rattus norvegicus [2] it was 100%; with Rattus norvegicus [3] it was 77%; in the test on Rattus norvegicus [4], 122%; in the test on Rattus norvegicus [5], 98%; with Rattus norvegicus [6], 93%. For the same molecule, the inhibition in [7] turned out to be 32%.
As to `O=C(O)c1ccc(NCCC2CCCC2)cc1`, the Diet came out at 83% in the test on Rattus norvegicus [1]; 88% in the test on Rattus norvegicus [2]; 78% with Rattus norvegicus [3]; 94% in the test with Rattus norvegicus [5]; 92% in the test on Rattus norvegicus [6]. In addition, the “serum triglyceride level (% of control)” value with Rattus norvegicus [11] stood at 64%.
Regarding `CCCC(Nc1ccc(C(=O)OCC)cc1)C(=O)OCC` (stereo unspecified), the Diet in the test on Rattus norvegicus [1] is listed as 96%; in the test with Rattus norvegicus [2] it was 102%; in the test on Rattus norvegicus [3], 93%; in the test with Rattus norvegicus [4], 77%; with Rattus norvegicus [5], 109%; in the test with Rattus norvegicus [6], 103%. The inhibition in test [7] turned out to be 44%.
Regarding `CCCC(Nc1ccc(C(=O)O)cc1)C(=O)O` (stereo unspecified), the Diet in the test with Rattus norvegicus [1] was determined as 74%; in the test with Rattus norvegicus [3] it was 93%; in the test with Rattus norvegicus [6] it was 95%. The “serum sterol level, percent of control” value in the test with Rattus norvegicus [10] turned out to be 87%. Besides, the inhibition in test [7] was found to be 0%.
